Measured values from PubChem BioAssay AID1552 (Sanford-Burnham Center for Chemical Genomics, 2009).
Calls of active or inactive are those of the source. No rule for the calls is given here.

These compounds were tested against Ubiquitin-conjugating enzyme E2 N (Homo sapiens) (UniProt P61088) (assay: UBE2N binders by NMR, biophysical, purified protein (AID 1552)). Conditions: NMR binding to purified UBE2N.
Sequence of Ubiquitin-conjugating enzyme E2 N (Homo sapiens) (P61088 whole entry, looked up): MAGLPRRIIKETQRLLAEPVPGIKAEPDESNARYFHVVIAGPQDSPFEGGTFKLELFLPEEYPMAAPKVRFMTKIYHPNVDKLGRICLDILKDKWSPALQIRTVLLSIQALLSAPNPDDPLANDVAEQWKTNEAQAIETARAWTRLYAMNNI
`O=C(/C=C/c1ccccc1)c1ccc(O[C@@H]2O[C@H](CO)[C@@H](O)[C@H](O)[C@H]2O)cc1O` was tested, and the Kd was > 4 mM (inactive).
In the case of `CC1=C(CCC(=O)O)c2cc3nc(cc4[nH]c(cc5[nH]c(cc1n2)c(C)c5C(C)O)c(C)c4C(C)O)C(C)=C3CCC(=O)O` (centres undefined), the Kd is reported as > 4 mM (inactive).
`CN(C)CCCN1CNC(=S)NC1` was tested, and the Kd was > 4 mM (inactive).
With `Cc1nc(-c2cccc(C(=O)O)c2)cs1` the Kd was > 4 mM (inactive).
`CN1C(=O)C2CC=C(Cl)CC2C1=O` (centres undefined) was tested, and the Kd was > 4 mM (inactive).
In the case of `O=C1NC(=O)C(Cc2cccs2)C(=O)N1`, the Kd is reported as > 4 mM (inactive).
For `Nc1ccc(N2CCOCC2)cc1`, the Kd was > 4 mM (inactive).
In the case of `Clc1ccccc1OCCn1ccnc1`, the Kd is reported as > 4 mM (inactive).
With `COc1ccc(-c2nc(C)sc2CC(=O)O)cc1` the Kd was > 4 mM (inactive).
In the case of `CCCCCCCCCCCCCCC(C(=O)OC)C(O)(CC(=O)OC)C(=O)OC` (centres undefined), the Kd is reported as > 4 mM (inactive).
`COc1ccc(/C=C/c2cc(O)cc(O)c2)cc1` was tested, and the Kd was > 4 mM (inactive).
For `COc1ccc(C(=O)CC(=O)O)c2c1C=CC(C)(C)O2`, the Kd was > 4 mM (inactive).
`Nc1nc(-c2ccncc2)cs1` was tested, and the Kd was > 4 mM (inactive).
`NC(=O)c1ccsc1NC(=O)C1=COCCO1` was tested, and the Kd was > 4 mM (inactive).
For `CC1(C)C[C@@H]2C(=O)CC[C@H]3O[C@]3(C)CC[C@H]21`, the Kd was > 4 mM (inactive).
For `CN1C(=O)C(Cc2c[nH]c3ccccc23)C(=O)N(C)C1=O`, the Kd was > 4 mM (inactive).
For `O=C(O)c1ccnn1-c1ccccc1`, the Kd was > 4 mM (inactive).
For `CNC(=S)Nc1ccc2c(c1)OCO2`, the Kd was > 4 mM (inactive).
For `COC(=O)c1cccc(N)c1`, the Kd was > 4 mM (inactive).
For `NC1=C([N+](=O)[O-])C(=O)c2ccccc21`, the Kd was > 4 mM (inactive).
`COC(=O)[C@@]1(C)CCC[C@]2(C)c3ccc(O)c(C(C)C)c3CCC12` (some centres undefined) was tested, and the Kd was > 4 mM (inactive).
`O=C1CS/C(=N/S(=O)(=O)c2ccccc2)N1` was tested, and the Kd was > 4 mM (inactive).
With `CC1(C)CN=C(Nc2nc3ccccc3s2)S1` the Kd was > 4 mM (inactive).
In the case of `NCCC(=O)N[C@@H](Cc1cnc[nH]1)C(=O)O`, the Kd is reported as > 4 mM (inactive).
In the case of `Cc1nnc(NCCO)[nH]c1=O`, the Kd is reported as > 4 mM (inactive).
For `COc1ccc(-c2coc3cc(OC)cc(OC)c3c2=O)cc1`, the Kd was > 4 mM (inactive).
With `O=C(O)CCC(=O)c1cccc2ccccc12` the Kd was > 4 mM (inactive).
For `CSc1nc(-c2ccccc2)ccc1C(N)=O`, the Kd was > 4 mM (inactive).
In the case of `CN(C)C(=S)Nc1nc2ccccc2s1`, the Kd is reported as > 4 mM (inactive).
In the case of `OC1(c2ccc(Cl)cc2)CCNCC1`, the Kd is reported as > 4 mM (inactive).
In the case of `CNC(=O)Cn1c(=O)n(C)c2ccccc21`, the Kd is reported as > 4 mM (inactive).
With `NC(=O)c1ccc(SCC(=O)O)c([N+](=O)[O-])c1` the Kd was > 4 mM (inactive).
With `O=C(O[C@@H]1Cc2c(O)cc(O)cc2O[C@@H]1c1cc(=O)c(O)c2c(O)c(O)cc([C@H]3Oc4cc(O)cc(O)c4C[C@H]3O)c2c1)c1cc(O)c(O)c(O)c1` the Kd was > 4 mM (inactive).
In the case of `O=C(O)C1CC(C2CCCCN2)CN2CCCCC12` (centres undefined), the Kd is reported as > 4 mM (inactive).
For `O=C1C2CC=C(Cl)CC2C(=O)N1c1ccccc1O` (centres undefined), the Kd was > 4 mM (inactive).
With `NCCCCNCCCN` the Kd was > 4 mM (inactive).
For `NC1=C(c2ccccc2)C(=O)c2ccccc21`, the Kd was > 4 mM (inactive).
In the case of `OCC1COc2ccccc2C1` (centres undefined), the Kd is reported as > 4 mM (inactive).
For `FC(F)(F)c1cc(-c2ccco2)nc(N2CCOCC2)n1`, the Kd was > 4 mM (inactive).
With `Cc1cn(C(=O)CN2C(=O)c3ccccc3C2=O)c(C)n1` the Kd was > 4 mM (inactive).
In the case of `COc1cc2nc(N3CCNCC3)nc(N)c2cc1OC`, the Kd is reported as > 4 mM (inactive).
`NC1=NC(=O)C(CC(=O)Nc2ccccc2F)S1` (centres undefined) was tested, and the Kd was > 4 mM (inactive).
`Cc1cc2c(N)cccc2nn1` was tested, and the Kd was > 4 mM (inactive).
For `Cc1c(C(=O)Nc2ccccn2)oc2ccccc12`, the Kd was > 4 mM (inactive).
In the case of `COc1cccc(OC)c1C(=O)N1CCOCC1`, the Kd is reported as > 4 mM (inactive).
`NC(=O)CCn1cnc2ccccc21` was tested, and the Kd was > 4 mM (inactive).
`O=c1[nH]c(=O)c2[nH]cnc2[nH]1` was tested, and the Kd was > 4 mM (inactive).
For `Cn1c(CN)nc2ccccc21`, the Kd was > 4 mM (inactive).
In the case of `O=C(O)CC(O)c1nc2ccccc2[nH]1` (centres undefined), the Kd is reported as > 4 mM (inactive).
With `CC(=O)Cc1nsc(NC(=O)c2ccc(C)cc2)n1` the Kd was > 4 mM (inactive).
`O=C1c2ccccc2-c2ncnc3cccc1c23` was tested, and the Kd was > 4 mM (inactive).
`COc1cccc(-c2nn(-c3ccccc3)cc2CO)c1` was tested, and the Kd was > 4 mM (inactive).
`Cc1ccc(CN2C3=NC(=O)CN3c3ccccc32)cc1` was tested, and the Kd was > 4 mM (inactive).
In the case of `Nc1ccccc1C(=O)N1CCNC(=O)C1`, the Kd is reported as > 4 mM (inactive).
With `CCOc1ccccc1C(=O)NC1=NCCS1` the Kd was > 4 mM (inactive).
In the case of `CC(=O)O[C@@H]1CC2C(C)(CC[C@H](O)C2(C)C)C2CC[C@]3(C)C(=CC(=O)O[C@H]3c3ccoc3)C21C` (some centres undefined), the Kd is reported as > 4 mM (inactive).
With `O=C1NCC(=O)N2CCc3ccccc3C12` (centres undefined) the Kd was > 4 mM (inactive).
For `CNC(=O)c1ccc([N+](=O)[O-])cc1Cl`, the Kd was > 4 mM (inactive).
For `O=C(Nc1ccc2ccccc2c1)c1cnccn1`, the Kd was > 4 mM (inactive).
